Tested on: 439559-082-T-J2-PDC spheroids viability
Experiment: Anticancer human tumor 439559-082-T-J2-PDC patient-derived colon adenocarcinoma cell line growth inhibition [GQUAD]
Settings: for IC50: curve of first compound; for viability, T/C: stronger effect = lower value; active means viability on the fitted dose curve at most 10% of control; inactive means the rest
Procedure, shortened: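 Multi-cell-type spheroids of tumor cells with HUVEC and mesenchymal stem cells, treated with drug combinations. Concentrations descend in half-log steps from near clinical Cmax, or from 10 microM where Cmax is unknown; viability read-out.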

[1] = second compound 0.0316 µM, first compound 0.0316 µM
[2] = second compound 0.0316 µM, first compound 0.1 µM
[3] = second compound 0.0316 µM, first compound 0.316 µM
[4] = second compound 0.0316 µM, first compound 1 µM
[5] = second compound 0.0316 µM, first compound 3.16 µM
[6] = second compound 0.0316 µM, first compound 10 µM
[7] = second compound 0.1 µM, first compound 0.0316 µM
[8] = second compound 0.1 µM, first compound 0.1 µM
[9] = second compound 0.1 µM, first compound 0.316 µM
[10] = second compound 0.1 µM, first compound 1 µM
[11] = second compound 0.1 µM, first compound 3.16 µM
[12] = second compound 0.1 µM, first compound 10 µM
[13] = second compound 0.316 µM, first compound 0.0316 µM
[14] = second compound 0.316 µM, first compound 0.1 µM
[15] = second compound 0.316 µM, first compound 0.316 µM
[16] = second compound 0.316 µM, first compound 1 µM
[17] = second compound 0.316 µM, first compound 3.16 µM
[18] = second compound 0.316 µM, first compound 10 µM
[19] = second compound 1 µM, first compound 0.0316 µM
[20] = second compound 1 µM, first compound 0.1 µM
[21] = second compound 1 µM, first compound 0.316 µM
[22] = second compound 1 µM, first compound 1 µM
[23] = second compound 1 µM, first compound 3.16 µM
[24] = second compound 1 µM, first compound 10 µM
[25] = second compound 3.16 µM, first compound 0.0316 µM
[26] = second compound 3.16 µM, first compound 0.1 µM
[27] = second compound 3.16 µM, first compound 0.316 µM
[28] = second compound 3.16 µM, first compound 1 µM
[29] = second compound 3.16 µM, first compound 3.16 µM
[30] = second compound 3.16 µM, first compound 10 µM
[31] = second compound 10 µM, first compound 0.0316 µM
[32] = second compound 10 µM, first compound 0.1 µM
[33] = second compound 10 µM, first compound 0.316 µM
[34] = second compound 10 µM, first compound 1 µM
[35] = second compound 10 µM, first compound 3.16 µM
[36] = second compound 10 µM, first compound 10 µM
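Further: spheroids exposed to the agents for 7 days before readout.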
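Wherever viability, T/C is given: percent of luminescence signal in DMSO vehicle wells taken as 100% viability.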

CC(C)n1c(=O)n(C)c2cnc3cc(F)c(-c4ccc(OCCCN5CCCCC5)nc4)cc3c21 + Cc1cnc(CNC(=O)c2c(=O)c3ccc(N4CCCN(C)CC4)nc3n3c2sc2ccccc23)cn1
5990 nM: IC50 (second compound 10 µM)
inactive: viability, T/C [1] 91.2% | viability, T/C [2] 77.3% | viability, T/C [3] 88.8% | viability, T/C [4] 90.8% | viability, T/C [5] 94.2% | viability, T/C [6] 82.6% | viability, T/C [7] 77.9% | viability, T/C [8] 76.1% | viability, T/C [9] 60.8% | viability, T/C [10] 68.2% | viability, T/C [11] 71% | viability, T/C [12] 62.9% | viability, T/C [13] 73.3% | viability, T/C [14] 67.6% | viability, T/C [15] 59.1% | viability, T/C [16] 66.3% | viability, T/C [17] 71.6% | viability, T/C [18] 53% | viability, T/C [19] 71.8% | viability, T/C [20] 55.7% | viability, T/C [21] 66.7% | viability, T/C [22] 62.4% | viability, T/C [23] 62.9% | viability, T/C [24] 42.7% | viability, T/C [25] 56.9% | viability, T/C [26] 60.6% | viability, T/C [27] 67.6% | viability, T/C [28] 60.8% | viability, T/C [29] 58.1% | viability, T/C [30] 46.1% | viability, T/C [31] 59.8% | viability, T/C [32] 57.2% | viability, T/C [33] 60.3% | viability, T/C [34] 59.2% | viability, T/C [35] 58% | viability, T/C [36] 39.8%
> 10000 nM: IC50 (second compound 0.0316 µM) | IC50 (second compound 0.1 µM) | IC50 (second compound 0.316 µM) | IC50 (second compound 1 µM) | IC50 (second compound 3.16 µM)

CC1COCCN1c1cc(-c2ccnn2C)c2ccnc(-c3ccn[nH]3)c2n1 (stereo unspecified) + Cc1cnc(CNC(=O)c2c(=O)c3ccc(N4CCCN(C)CC4)nc3n3c2sc2ccccc23)cn1
123 nM: IC50 (second compound 0.1 µM)
inactive: viability, T/C [1] 85.7% | viability, T/C [2] 62.4% | viability, T/C [3] 37.3% | viability, T/C [4] 31.8% | viability, T/C [5] 33.6% | viability, T/C [6] 30% | viability, T/C [7] 91.6% | viability, T/C [8] 53% | viability, T/C [9] 36.4% | viability, T/C [10] 27.6% | viability, T/C [11] 40% | viability, T/C [12] 28.1% | viability, T/C [13] 74.4% | viability, T/C [14] 43.8% | viability, T/C [15] 33.9% | viability, T/C [16] 34.1% | viability, T/C [17] 32.9% | viability, T/C [18] 24.4% | viability, T/C [19] 66.3% | viability, T/C [20] 43.4% | viability, T/C [21] 33.2% | viability, T/C [22] 30% | viability, T/C [23] 32% | viability, T/C [24] 26.1% | viability, T/C [25] 57.6% | viability, T/C [26] 33.4% | viability, T/C [27] 31.4% | viability, T/C [28] 31.6% | viability, T/C [29] 27.4% | viability, T/C [30] 19.9% | viability, T/C [31] 52.9% | viability, T/C [32] 35% | viability, T/C [33] 32.5% | viability, T/C [34] 25.9% | viability, T/C [35] 27.3% | viability, T/C [36] 20.3%
46.8 nM: IC50 (second compound 3.16 µM)
80.9 nM: IC50 (second compound 0.316 µM)
37.3 nM: IC50 (second compound 10 µM)
71.5 nM: IC50 (second compound 1 µM)
176 nM: IC50 (second compound 0.0316 µM)

CC1COCCN1c1cc(C2(O)CC3CCC(C2)O3)c2cnn(-c3ccn[nH]3)c2n1 (stereo unspecified) + Cc1cnc(CNC(=O)c2c(=O)c3ccc(N4CCCN(C)CC4)nc3n3c2sc2ccccc23)cn1
inactive: viability, T/C [1] 84.9% | viability, T/C [2] 85.1% | viability, T/C [3] 66.8% | viability, T/C [4] 47.8% | viability, T/C [5] 38.4% | viability, T/C [6] 30.4% | viability, T/C [7] 84.4% | viability, T/C [8] 77.6% | viability, T/C [9] 57.6% | viability, T/C [10] 43.8% | viability, T/C [11] 34.6% | viability, T/C [12] 33.2% | viability, T/C [13] 82.5% | viability, T/C [14] 68.7% | viability, T/C [15] 54.3% | viability, T/C [16] 34.3% | viability, T/C [17] 37.9% | viability, T/C [18] 31.3% | viability, T/C [19] 71.4% | viability, T/C [20] 68.2% | viability, T/C [21] 49.6% | viability, T/C [22] 36.5% | viability, T/C [23] 28.8% | viability, T/C [24] 26.6% | viability, T/C [25] 65.5% | viability, T/C [26] 57.8% | viability, T/C [27] 49.9% | viability, T/C [28] 34.6% | viability, T/C [29] 25.2% | viability, T/C [30] 27.3% | viability, T/C [31] 65.6% | viability, T/C [32] 50.5% | viability, T/C [33] 44.5% | viability, T/C [34] 32.8% | viability, T/C [35] 27.6% | viability, T/C [36] 21.2%
342 nM: IC50 (second compound 1 µM)
275 nM: IC50 (second compound 3.16 µM)
364 nM: IC50 (second compound 0.316 µM)
136 nM: IC50 (second compound 10 µM)
591 nM: IC50 (second compound 0.1 µM)
901 nM: IC50 (second compound 0.0316 µM)
